In the data set the test system is CCRIS mutagenicity, Ames/micronucleus/aberration tests. Kind of data set: CCRIS mutagenicity studies.
Setting [1] is: Test System: AMES SALMONELLA TYPHIMURIUM, Strain/Indicator: TA98, Metabolic Activation: RAT, LIVER, S-9, AROCLOR 1254, Method: PREINCUBATION
[2] abbreviates: Test System: AMES SALMONELLA TYPHIMURIUM, Strain/Indicator: TA100, Metabolic Activation: RAT, LIVER, S-9, AROCLOR 1254, Method: PREINCUBATION
Setting [3] is: Test System: AMES SALMONELLA TYPHIMURIUM, Strain/Indicator: TA98, Metabolic Activation: RAT, LIVER, S-9, AROCLOR 1254, Method: STANDARD PLATE.
[4] abbreviates: Test System: AMES SALMONELLA TYPHIMURIUM, Strain/Indicator: TA100, Metabolic Activation: NONE, Method: STANDARD PLATE.
[5] abbreviates: Test System: AMES SALMONELLA TYPHIMURIUM, Strain/Indicator: TA100, Metabolic Activation: RAT, LIVER, S-9, AROCLOR 1254, Method: STANDARD PLATE.
Setting [6] is: Test System: AMES SALMONELLA TYPHIMURIUM, Strain/Indicator: TA102, Metabolic Activation: NONE, Method: STANDARD PLATE.

This passage reports mutagenic call results from PubChem BioAssay AID1259407 (Chemical Carcinogenesis Research Information System (CCRIS), 2018).

Activity calls are given as the source filed them. How the calls were made is not given here.

As to `C1=C\CC/C=C\CC/1.Nc1ccccc1.[Cl-].[Rh]`, the mutagenic call (Test System: AMES SALMONELLA TYPHIMURIUM, Strain/Indicator: TA2410, Metabolic Activation: NONE, Method: STANDARD PLATE) was “inactive; negative”.

`Cc1nc(N)cc2[nH]c3ccccc3c12`: the mutagenic call by setting is: (Test System: AMES SALMONELLA TYPHIMURIUM, Strain/Indicator: TA98, Metabolic Activation: HUMAN, BLOOD, CYTOSOL, Method: PREINCUBATION) “active; positive”; (Test System: AMES SALMONELLA TYPHIMURIUM, Strain/Indicator: TA98, Metabolic Activation: MOUSE, LIVER, HEPATOCYTES) “active; positive”; (Test System: AMES SALMONELLA TYPHIMURIUM, Strain/Indicator: TA98, Metabolic Activation: MOUSE, LIVER, HEPATOCYTES, 2,3,7,8-TETRACHLORODIBENZO-P-DIOXIN) “active; positive”; (Test System: AMES SALMONELLA TYPHIMURIUM, Strain/Indicator: TA98, Metabolic Activation: MOUSE, LIVER, MICROSOMES) “active; positive”; (Test System: AMES SALMONELLA TYPHIMURIUM, Strain/Indicator: TA98, Metabolic Activation: MOUSE, LIVER, MICROSOMES, 2,3,7,8-TETRACHLORODIBENZO-P-DIOXIN) “active; positive”; (Test System: AMES SALMONELLA TYPHIMURIUM, Strain/Indicator: TA98, Metabolic Activation: MOUSE, LIVER, MICROSOMES, TCDD, Method: STANDARD PLATE) “active; positive”. The mutagenic call is, setting by setting: (Test System: AMES SALMONELLA TYPHIMURIUM, Strain/Indicator: TA98, Metabolic Activation: MOUSE, LIVER, MICROSOMES, Method: STANDARD PLATE) “active; positive”; (Test System: AMES SALMONELLA TYPHIMURIUM, Strain/Indicator: TA98, Metabolic Activation: RAT, BLADDER, S-9, PCB, Method: FLUCTUATION TEST) “active; positive”; (Test System: AMES SALMONELLA TYPHIMURIUM, Strain/Indicator: TA98, Metabolic Activation: RAT, HEPATOCYTES, AROCLOR 1254, Method: PREINCUBATION) “active; positive”; under setting [1], “active; positive”; (Test System: AMES SALMONELLA TYPHIMURIUM, Strain/Indicator: TA100, Metabolic Activation: RAT, BLADDER, S-9, PCB, Method: FLUCTUATION TEST) “active; positive”; under setting [2], “inactive; negative”. Also, the mutagenic call (Test System: AMES SALMONELLA TYPHIMURIUM, Strain/Indicator: YG1019, Metabolic Activation: RAT LIVER S-9, AROCLOR, Method: PREINCUBATION) was “active; positive”; the mutagenic call (Test System: UDS HAMSTER HEPATOCYTES, Strain/Indicator: THY INCORP, Metabolic Activation: NONE, Method: LIQUID SCINTILLATION COUNTING) was “inactive; negative”; the mutagenic call (Test System: UDS RAT HEPATOCYTES, Strain/Indicator: THY INCORP, Metabolic Activation: NONE, Method: LIQUID SCINTILLATION COUNTING) is “inactive; negative”.

As for `COC(=O)/C=C/C(C)=C\C=C\C(C)=C\C=C\C=C(C)\C=C\C=C(C)\C=C\C(=O)O`, the mutagenic call (Test System: Mouse lymphoma, Strain/Indicator: L5178Y (tk+/tk-), Metabolic Activation: None, Method: Suspension/plate) was “inactive; negative” and the mutagenic call (Test System: Mouse lymphoma, Strain/Indicator: L5178Y (tk+/tk-), Metabolic Activation: Rat, Liver, S-9, Aroclor 1254, Method: Suspension/plate) is “inactive; negative”.

Consider `Cn1ccc2c3c(ccc4ccc(O)cc43)ccc21`, for which the mutagenic call was “inactive; negative” under setting [3] and “active; positive” (Test System: AMES SALMONELLA TYPHIMURIUM, Strain/Indicator: TA98, Metabolic Activation: RAT, LIVER, S-9, AROCLOR, Method: STANDARD PLATE).

For the compound `CC(C)CN(N)CC(C)C`, the mutagenic call under setting [4] is “active; positive”; the mutagenic call under setting [5] was “active; positive”; the mutagenic call under setting [6] was “inactive; negative”; the mutagenic call (Test System: AMES SALMONELLA TYPHIMURIUM, Strain/Indicator: TA102, Metabolic Activation: RAT, LIVER, S-9, AROCLOR 1254, Method: STANDARD PLATE) is “inactive; negative”.

As to `C1CCC(C2(C3CCCCC3)COCCOCCOCCOCCOCCOCCO2)CC1`, the mutagenic call is, setting by setting: (Test System: AMES SALMONELLA TYPHIMURIUM, Strain/Indicator: TA98, Metabolic Activation: NONE, Method: STANDARD PLATE) “inactive; negative”; under setting [3], “inactive; negative”; under setting [4], “inactive; negative”; under setting [5], “inactive; negative”; (Test System: AMES SALMONELLA TYPHIMURIUM, Strain/Indicator: TA1530, Metabolic Activation: NONE, Method: STANDARD PLATE) “inactive; negative”; (Test System: AMES SALMONELLA TYPHIMURIUM, Strain/Indicator: TA1530, Metabolic Activation: RAT, LIVER, S-9, AROCLOR 1254, Method: STANDARD PLATE) “inactive; negative”. The mutagenic call is “inactive; negative” (Test System: AMES SALMONELLA TYPHIMURIUM, Strain/Indicator: TA1537, Metabolic Activation: NONE, Method: STANDARD PLATE) and “inactive; negative” (Test System: AMES SALMONELLA TYPHIMURIUM, Strain/Indicator: TA1537, Metabolic Activation: RAT, LIVER, S-9, AROCLOR 1254, Method: STANDARD PLATE).

In the case of `Nc1cc2c3c(cccc3c1)-c1ccccc1-2`, the mutagenic call by setting is: (Test System: AMES SALMONELLA TYPHIMURIUM, Strain/Indicator: TA98, Metabolic Activation: RAT, LIVER, S-9, AROCLOR 1254 (2 OR 4%), Method: STANDARD PLATE) “active; positive”; (Test System: AMES SALMONELLA TYPHIMURIUM, Strain/Indicator: TA100, Metabolic Activation: RAT, LIVER, S-9, AROCLOR 1254 (4%), Method: STANDARD PLATE) “active; positive”; (Test System: AMES SALMONELLA TYPHIMURIUM, Strain/Indicator: TA1535, Metabolic Activation: RAT, LIVER, S-9, AROCLOR 1254 (4%), Method: STANDARD PLATE) “active; positive”; (Test System: AMES SALMONELLA TYPHIMURIUM, Strain/Indicator: TA1537, Metabolic Activation: RAT, LIVER, S-9, AROCLOR 1254 (4%), Method: STANDARD PLATE) “active; positive”.

Take `CCCCOO`: the mutagenic call by setting is: under setting [4], “inactive; negative”; under setting [6], “active; positive”.

With `Cc1ccc(S(=O)(=O)OCc2ccccc2)cc1`, the mutagenic call under setting [4] is “inactive; negative”.

As to `c1ccc2c(c1)cc1ccc3cccc4c5ccccc5c2c1c34`, the mutagenic call (End Point: In vitro micronucleus, Test System: V79MZ Chinese hamster fibroblasts, Metabolic Activation: None) was “inactive; negative”; the mutagenic call (End Point: In vitro micronucleus, Test System: V79MZ-h1A1 Chinese hamster fibroblasts (expressing human CYP1A1), Metabolic Activation: None) was “active; positive”; the mutagenic call (End Point: In vitro micronucleus, Test System: V79MZ-h1B1 Chinese hamster fibroblasts (expressing human CYP1B1), Metabolic Activation: None) is “active; positive”; the mutagenic call under setting [1] is “active; positive”; the mutagenic call under setting [2] is “active; positive”; the mutagenic call (Test System: CHINESE HAMSTER V-79, Strain/Indicator: V-79 (HPRT)/6-THIOGUANINE, Metabolic Activation: HUMAN MAMMARY CARCINOMA MCF-7 CELLS) is “active; positive”.
